Laboratory results as given in patent publication US8143419B2, “Trisubstituted 1,2,4-triazoles” (Janssen Pharmaceutica N. V., priority 2006, dated 2012).

Assays:
hα7-wt nAChR = target: T1, hα7-wt nAChR (Homo sapiens, UniProt P36544); assay: Ca2+ flux imaging (FDSS) (Protocol B), PAM activity with choline as agonist; type: cell-based; details: for EC50: "<5" = no top plateau at maximal concentration; for Emax: read-out: % efficacy
T1 construct: expressed in transfected cells
Procedure: • Hanks buffered saline solution (HBSS, Invitrogen, Belgium), supplemented with 10 mM HEPES (Invitrogen, Belgium), CaCl2 to a final concentration of 5 mM, 0.1% Bovine serum albumin (Sigma-Aldrich NV, Belgium). b) Calcium-Sensitive Dye—Fluo-4AM • Fluo-4AM (Molecular Probes, USA) was dissolved in DMSO containing 10% Pluronic acid (Molecular Probes, USA) to give a stock solution which was diluted in assay buffer supplemented with 5 mM probenicid (Sigma, Aldrich NV, Belgium) to give a final concentration of 2 μM. c) 384-Well Plates • Black 384 well plate black/clear plates, PDL pre-coated (Corning, Incorporated, USA) d) Calcium Flux Measurement
A Functional drug screening system (FDSS, Hamamatsu) was used to measure intracellular free-calcium flux signals.
Monolayers of hα7-wt nAChR-expressing cells were grown in multi-well plates, in particular black-sided, transparent bottomed 384 well plates coated with poly-D-lysine for 24 hours prior to loading with a fluorescent calcium indicator, in a particular embodiment loading with fluo-4AM for up to 120 minutes.
PAM activity was detected in real time by applying the compounds to be tested to the loaded cells along with a α7 nicotinic receptor agonist during constant monitoring of cellular fluorescence in a FDSS. Compounds giving peak fluorescent responses greater than the response due to agonist alone, were considered to be α7 nAChR PAM's. In a particular embodiment, the α7 nicotinic receptor agonist was choline, a more particular embodiment choline applied at a sub-maximal concentration of 100 μM. In a further setting of the present invention the compounds to be tested were applied prior to the α7 nicotinic receptor agonist, in a particular embodiment up to 10 minutes prior to the agonist.
A control response to choline was calculated on each plate from the difference in peak in fluorescence in wells receiving either choline or assay buffer alone. Compounds of the present invention were tested at a concentration range from 0.01 μM to 30 μM. Compounds were considered to have an interesting activity when they potentiated the choline signal at least with 500% when tested at a concentration of 30 μM (the efficacy of 100 μM choline was defined as 100% in the absence of a PAM). The compounds also have a potentiating effect on the response to choline when measured by whole-cell patch clamp electrophysiology in GH4C1 cells stably over-expressing the human wild-type α7 receptor.

T1 sequence (P36544 23-502): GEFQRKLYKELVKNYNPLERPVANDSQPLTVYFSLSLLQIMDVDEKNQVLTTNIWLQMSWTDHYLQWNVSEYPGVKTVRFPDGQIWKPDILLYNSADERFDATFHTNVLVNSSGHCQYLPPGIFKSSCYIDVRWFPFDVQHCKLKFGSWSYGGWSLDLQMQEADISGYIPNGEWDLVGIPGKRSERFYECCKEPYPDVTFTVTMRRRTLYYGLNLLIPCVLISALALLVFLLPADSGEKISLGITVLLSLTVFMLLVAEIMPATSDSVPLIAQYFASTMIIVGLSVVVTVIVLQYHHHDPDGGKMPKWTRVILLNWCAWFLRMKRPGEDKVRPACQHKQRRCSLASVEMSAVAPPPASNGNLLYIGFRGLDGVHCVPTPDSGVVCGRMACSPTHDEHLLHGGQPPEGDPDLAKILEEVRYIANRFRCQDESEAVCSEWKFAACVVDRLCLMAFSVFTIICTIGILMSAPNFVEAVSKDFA

| SMILES | melting point [°C] | EC50 (hα7-wt nAChR) [nM] | Emax (hα7-wt nAChR) [%] |
| --- | --- | --- | --- |
| CNC(=O)c1ccc(-c2nc(Nc3ccc(F)c(F)c3)nn2C[C@H](C)O)cn1 [Compound 41] | 186.1 | > 10000 | 635 |
| Cc1ccncc1-c1nc(Nc2ccc(F)c(C(F)(F)F)c2)nn1CC(=O)NC1CC1 [Compound 120] | 251 | 3980 | – |
| COc1ccc(-c2nc(Nc3cccc(C(F)(F)F)c3)nn2CCO)cn1 [Compound 72] | 160 | 1260 | – |
| CNC(=O)Cn1nc(Nc2cccc(C(F)(F)F)c2)nc1-c1ccncc1 [Compound 9] | 212.9 to 214 | > 10000 | – |
| CNC(=O)Cn1nc(Nc2ccc(F)c(C(F)(F)F)c2)nc1-c1ccc(NC)nc1 [Compound 113] | 256.6 | 2000 | – |
| CNC(=O)Cn1nc(Nc2ccc(F)c(C(F)(F)F)c2)nc1-c1ccncc1OC [Compound 109] | 234.8 | 3980 | – |
| Cc1cc(-c2nc(Nc3ccc(F)c(C(F)(F)F)c3)nn2C[C@H](C)O)ccn1 [Compound 97] | 145.2 | 3160 | – |
| C[C@H](O)Cn1nc(Nc2ccc(F)c(C(F)(F)F)c2)nc1-c1cnc2c(c1)OCC2 [Compound 105] | 174.4 | 3980 | – |
| Cc1cc(-c2nc(Nc3ccc4c(c3)OC(F)(F)O4)nn2CC(=O)NC2CCCC2O)ccn1 (stereo not drawn) [Compound 207] | 219.7 | > 10000 | 811 |
| NC(=O)CCn1nc(Nc2cccc(C(F)(F)F)c2)nc1-c1ccc2c(c1)OCCO2 [Compound 10] | 175.2 to 176.5 | 2000 | – |
| CNC(=O)Cn1nc(Nc2ccc3c(c2)OC(F)(F)O3)nc1-c1cc(Cl)ncc1Cl [Compound 203] | 231.3 | 3160 | – |
| COc1ccc(Nc2nc(-c3ccncc3)n(CCO)n2)cc1C(F)(F)F [Compound 143] | 240.4 | 2000 | – |
| OCCn1nc(Nc2cc(Cl)ccc2Cl)nc1-c1ccncc1 [Compound 14] | 163.4 to 165.2 | 5010 | – |
| Cc1nc(CCn2nc(Nc3ccc(F)c(C(F)(F)F)c3)nc2-c2ccnc(Cl)c2)no1 [Compound 56] | 117.4 | 1260 | 717 |
| CC(=O)CCn1nc(Nc2cccc(C(F)(F)F)c2)nc1-c1ccnc(C)c1 [Compound 47] | 138.1 | > 10000 | – |
| CNc1ccc(-c2nc(Nc3ccc(F)c(C(F)(F)F)c3)nn2CCO)cn1 [Compound 92] | 179 | 3160 | – |
| CC(C)(O)c1cc(-c2nc(Nc3ccc(F)c(C(F)(F)F)c3)nn2CC(=O)NC2CC2)ccn1 [Compound 122] | 174 | 2000 | 988 |
| Cc1cc(-c2nc(Nc3cccc(OC(F)(F)F)c3)nn2CC(=O)NC2CC2)ccn1 [Compound 164] | 190.7 | 2000 | – |
| CNc1cc(-c2nc(Nc3ccc(F)c(C(F)(F)F)c3)nn2CCc2noc(C)n2)ccn1 [Compound 37] | 188.7 | 1260 | – |
| OCCn1nc(Nc2ccc(F)cc2)nc1-c1ccc(C2CC2)nc1 [Compound 171] | 169.8 | 2510 | – |
| CNC(=O)Cn1nc(Nc2ccc3c(c2)OC(F)(F)O3)nc1-c1ccnc(C)c1 [Compound 200] | 227 | 2000 | – |

The remaining compounds from weak to strong by EC50 (hα7-wt nAChR), led by results:

| melting point [°C] | EC50 (hα7-wt nAChR) [nM] | Emax (hα7-wt nAChR) [%] | SMILES |
| --- | --- | --- | --- |
| 214.2 to 223.5 | 1260 | – | CNC(=O)Cn1nc(Nc2ccnc(C(F)(F)F)c2)nc1-c1ccc2c(c1)OCCO2 [Compound 212] |
| 265 | 1000 | – | CNC(=O)Cn1nc(Nc2ccc(F)c(C(F)(F)F)c2)nc1-c1ccnc(C)c1 [Compound 107] |
| 181.3 | 1000 | – | Cc1cc(-c2nc(Nc3ccc(F)c(F)c3)nn2CCC(=O)N(C)C)ccn1 [Compound 185] |
| 165.1 | 1000 | – | CCNc1cc(-c2nc(Nc3cc(F)c(F)c(F)c3)nn2C[C@H](C)O)ccn1 [Compound 39] |
| 160.5 | 1000 | – | CCOC(=O)NCCn1nc(Nc2ccc(F)c(C(F)(F)F)c2)nc1-c1ccnc(C)c1 [Compound 139] |
| 146.9 | 1000 | – | Cc1cc(-c2nc(Nc3ccc(F)c(C(F)(F)F)c3)nn2CCCC(=O)N(C)C)ccn1 [Compound 42] |
| 259.6 | 794 | – | CNC(=O)Cn1nc(Nc2ccc(F)c(C(F)(F)F)c2)nc1-c1ccnc(NC)c1 [Compound 112] |
| 124.1 | 794 | – | CC(=O)CCCn1nc(Nc2ccc(F)c(C(F)(F)F)c2)nc1-c1ccnc(C)c1 [Compound 43] |
| 227.2 | 794 | – | Cc1cc(-c2nc(Nc3ccc4c(c3)OC(F)(F)O4)nn2CC(=O)NCC2CC2)ccn1 [Compound 26] |
| 200 | 794 | 812 | Cc1cc(-c2nc(Nc3cc(F)c(F)c(F)c3)nn2C[C@H](C)O)cc(Cl)n1 [Compound 172] |
| 199.8 | 794 | – | COc1cc(Nc2nc(-c3ccnc(C)c3)n(CCC(=O)N(C)C)n2)cc(F)c1F [Compound 188] |
| 177.1 | 794 | 601 | CC(C)c1ccc(-c2nc(Nc3cccc(C(F)(F)F)c3)nn2CCO)cn1 [Compound 71] |
| 224.8 | 794 | – | Cc1cc(-c2nc(Nc3ccc4c(c3)OC(F)(F)O4)nn2CC(=O)NC2CCC2)ccn1 [Compound 205] |
| 215 to 219.2 | 794 | 974 | COc1ccc(-c2nc(Nc3ccc(F)c(C(F)(F)F)c3)nn2CC(=O)NC(C)C)c(OC)c1 [Compound 119] |
| 176.5 | 794 | – | C[C@H](O)Cn1nc(Nc2ccc(F)c(C(F)(F)F)c2)nc1-c1ccnc(NC2CC2)c1 [Compound 103] |
| 147.2 | 631 | – | CCOC(=O)NCCn1nc(Nc2ccc(F)c(C(F)(F)F)c2)nc1-c1ccnc(C2CC2)c1 [Compound 140] |

| melting point [°C] | EC50 (hα7-wt nAChR) [nM] | Emax (hα7-wt nAChR) [%] | SMILES |
| --- | --- | --- | --- |
| 169.1 | 631 | – | Cc1cc(-c2nc(Nc3cccc(C(F)(F)F)c3)nn2CCC(=O)N(C)C)ccn1 [Compound 48] |
| 216.4 | 631 | – | CN(C)C(=O)CCn1nc(Nc2ccc3c(c2)OC(F)(F)O3)nc1-c1ccncc1 [Compound 33] |
| 229.1 | 631 | – | Cc1cc(-c2nc(Nc3ccc4c(c3)OC(F)(F)O4)nn2CC(=O)NC2CCCC2)ccn1 [Compound 206] |
| 157.9 | 501 | – | CCOc1ccc(-c2nc(Nc3ccc(F)c(C(F)(F)F)c3)nn2CCO)cn1 [Compound 91] |
| 182.2 | 398 | – | Cc1cc(-c2nc(Nc3ccc4c(c3)OC(F)(F)O4)nn2CCC(=O)N(C)C)cc(C)n1 [Compound 209] |
| 201.5 | 316 | – | CN(C)C(=O)CCn1nc(Nc2ccc3c(c2)OC(F)(F)O3)nc1-c1ccncc1F [Compound 210] |
| 177.7 | 316 | – | COc1cc(-c2nc(Nc3cccc(C(F)(F)F)c3)nn2CCC(=O)N(C)C)cc(Cl)n1 [Compound 84] |
| 168 | 251 | – | OCCn1nc(Nc2ccc(F)c(C(F)(F)F)c2)nc1-c1ccc(C2CC2)nc1 [Compound 94] |
| 177.2 | 200 | – | COc1ccc(Nc2nc(-c3ccnc(C)c3)n(CCC(=O)N(C)C)n2)cc1C(F)(F)F [Compound 144] |
| 185.4 | 200 | – | Cc1ccc(-c2nc(Nc3ccc(F)c(C(F)(F)F)c3)nn2CCC(=O)N(C)C)cn1 [Compound 127] |
| 213.9 to 215 | 200 | – | CC(C)NC(=O)Cn1nc(Nc2cccc(C(F)(F)F)c2)nc1-c1ccc2c(c1)OCCO2 [Compound 5] |
| 168 | 158 | – | CN1CCOc2cc(-c3nc(Nc4cccc(OC(F)(F)F)c4)nn3CC(=O)NC3CC3)ccc21 [Compound 165] |
| 201.1 | 100 | – | CCNc1ccc(-c2nc(Nc3ccc(F)c(C(F)(F)F)c3)nn2CCC(=O)N(C)C)cn1 [Compound 130] |
| 150.9 | 100 | – | CN(C)C(=O)CCn1nc(Nc2ccc(F)c(C(F)(F)F)c2)nc1-c1ccc(NC2CC2)nc1 [Compound 133] |
| 219.8 | 20 | – | CN(C)C(=O)CCn1nc(Nc2ccc(F)c(C(F)(F)F)c2)nc1-c1ccnc(NC2CC2)c1 [Compound 134] |
